# Experimental data taken from PubChem BioAssay (NCI).
#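 Protocol summary: plate cells (96-well), add compound at 5 concentrations, incubate 48 h, interpolate endpoints linearly. GI50: concentration for 50% inhibition of growth. TGI marks complete inhibition of growth.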
# Tests used:
# Assay in all cases: inhibition of tumour cell growth, NCI panel, 48 h
# [1] = system: OVCAR-5 ovarian
# [2] = system: RPMI-8226 leukemia
# [3] = system: BT-549 breast
# [4] = system: U251 CNS
# [5] = system: A549 NSCLC
# [6] = system: SW-620 colon
# [7] = system: SN12C renal
# [8] = system: HOP-92 NSCLC
# [9] = system: NCI-H460 lung
# [10] = system: MDA-MB-231 breast
# [11] = system: CAKI-1 renal
# [12] = system: SF-268 CNS
# [13] = system: NCI-H226 lung
# [14] = system: RXF 393 renal
# [15] = system: DU-145 prostate
# [16] = system: HT29 colon
# [17] = system: ACHN renal
# [18] = system: SK-MEL-28 melanoma
# [19] = system: COLO 205 colon
# [20] = system: NCI/ADR-RES ovarian
# [21] = system: UACC-62 melanoma
# [22] = system: HS 578T breast
# [23] = system: MALME-3M melanoma
# [24] = system: TK-10 renal
# [25] = system: NCI-H23 lung
# [26] = system: HCT-116 colon
# [27] = system: MOLT-4 leukemia
# [28] = system: SK-MEL-5 melanoma
# [29] = system: SF-539 CNS
# [30] = system: HL-60(TB) leukemia
# [31] = system: UO-31 renal
# [32] = system: SK-MEL-2 melanoma
# [33] = system: 786-0 renal
# [34] = system: OVCAR-8 ovarian
# [35] = system: EKVX NSCLC
# [36] = system: HOP-62 NSCLC
# [37] = system: A498 renal
# [38] = system: CCRF-CEM leukemia
# [39] = system: T-47D breast
# [40] = system: LOX IMVI melanoma
# [41] = system: MCF7 breast
# [42] = system: HCT-15 colon
# [43] = system: K-562 leukemia
# [44] = system: KM12 colon
# [45] = system: SNB-75 CNS
# [46] = system: SF-295 CNS
# [47] = system: M14 melanoma
# [48] = system: OVCAR-4 ovarian
# [49] = system: SNB-19 CNS
# [50] = system: HCC-2998 colon
# [51] = system: IGROV1 ovarian
# [52] = system: UACC-257 melanoma
# [53] = system: PC-3 prostate
# [54] = system: SK-OV-3 ovarian
smiles,measurement,setting,value
CCC1=Cc2c(OC)cccc2OC12C=Cc1c(OC)cccc1O2 (stereo not drawn),GI50,[1],1840 nM
same,TGI,[1],> 100 µM
same,GI50,[2],2870 nM
same,TGI,[2],> 100 µM
same,GI50,[3],1610 nM
same,TGI,[3],6.22 µM
same,GI50,[4],1090 nM
same,TGI,[4],> 100 µM
same,GI50,[5],1520 nM
same,TGI,[5],> 100 µM
same,GI50,[6],707 nM
same,TGI,[6],> 100 µM
same,GI50,[7],940 nM
same,TGI,[7],> 100 µM
same,GI50,[8],1000 nM
same,TGI,[8],8.79 µM
same,GI50,[9],2570 nM
same,TGI,[9],14.2 µM
same,GI50,[10],2030 nM
same,TGI,[10],73.2 µM
same,GI50,[11],858 nM
same,TGI,[11],> 100 µM
same,GI50,[12],3.09 µM
same,TGI,[12],> 100 µM
same,GI50,[13],2840 nM
same,TGI,[13],52.1 µM
same,GI50,[14],990 nM
same,TGI,[14],7.29 µM
same,GI50,[15],2140 nM
same,TGI,[15],> 100 µM
same,GI50,[16],508 nM
same,TGI,[16],3.76 µM
same,GI50,[17],2850 nM
same,TGI,[17],> 100 µM
same,GI50,[18],> 100 µM
same,TGI,[18],> 100 µM
same,GI50,[19],1310 nM
same,TGI,[19],3.7 µM
same,GI50,[20],678 nM
same,TGI,[20],> 100 µM
same,GI50,[21],530 nM
same,TGI,[21],> 100 µM
same,GI50,[22],2550 nM
same,TGI,[22],> 100 µM
same,GI50,[23],3.79 µM
same,TGI,[23],> 100 µM
same,GI50,[24],24.5 µM
same,TGI,[24],> 100 µM
same,GI50,[25],2930 nM
same,TGI,[25],> 100 µM
same,GI50,[26],436 nM
same,TGI,[26],> 100 µM
same,GI50,[27],2390 nM
same,TGI,[27],> 100 µM
same,GI50,[28],1240 nM
same,TGI,[28],8.33 µM
same,GI50,[29],1570 nM
same,TGI,[29],9.03 µM
same,GI50,[30],507 nM
same,TGI,[30],> 100 µM
same,GI50,[31],2400 nM
same,TGI,[31],> 100 µM
same,GI50,[32],1220 nM
same,TGI,[32],6.03 µM
same,GI50,[33],1840 nM
same,TGI,[33],> 100 µM
same,GI50,[34],2150 nM
same,TGI,[34],6.51 µM
same,GI50,[35],4.74 µM
same,TGI,[35],> 100 µM
same,GI50,[36],1660 nM
same,TGI,[36],> 100 µM
same,GI50,[37],1300 nM
same,TGI,[37],4.17 µM
same,GI50,[38],551 nM
same,TGI,[38],> 100 µM
same,GI50,[39],16.3 µM
same,TGI,[39],> 100 µM
same,GI50,[40],1600 nM
same,TGI,[40],> 100 µM
same,GI50,[41],414 nM
same,TGI,[41],> 100 µM
same,GI50,[42],469 nM
same,TGI,[42],> 100 µM
same,GI50,[43],463 nM
same,TGI,[43],> 100 µM
same,GI50,[44],519 nM
same,TGI,[44],32.4 µM
same,GI50,[45],1310 nM
same,TGI,[45],9.27 µM
same,GI50,[46],1010 nM
same,TGI,[46],> 100 µM
same,GI50,[47],570 nM
same,TGI,[47],22 µM
same,GI50,[48],47.4 µM
same,TGI,[48],> 100 µM
same,GI50,[49],646 nM
same,TGI,[49],> 100 µM
same,GI50,[50],2580 nM
same,TGI,[50],13.2 µM
same,GI50,[51],2500 nM
same,TGI,[51],> 100 µM
same,GI50,[52],7.48 µM
same,TGI,[52],> 100 µM
same,GI50,[53],1730 nM
same,TGI,[53],> 100 µM
same,GI50,[54],2930 nM
same,TGI,[54],> 100 µM
